Measurements published in ChEMBL document CHEMBL1201862, “PubChem BioAssay data set” (2004).
Active and inactive are the calls of the source.

How the values were obtained:
[1] = alpha-synuclein stem-loop luciferase translation blockers – H4 neuroglioma cells, luminescence, confirmation (AID 1988); assay type: functional, cell-based
[2] = target: T1, Apoptotic protease-activating factor 1 (Homo sapiens, UniProt O14727); test: SAR analysis of small molecule inhibitors of Apaf-1 in a Fluorescent assay.; assay type: functional; conditions: read-out: IC50_Mean
T1 sequence (O14727 whole entry): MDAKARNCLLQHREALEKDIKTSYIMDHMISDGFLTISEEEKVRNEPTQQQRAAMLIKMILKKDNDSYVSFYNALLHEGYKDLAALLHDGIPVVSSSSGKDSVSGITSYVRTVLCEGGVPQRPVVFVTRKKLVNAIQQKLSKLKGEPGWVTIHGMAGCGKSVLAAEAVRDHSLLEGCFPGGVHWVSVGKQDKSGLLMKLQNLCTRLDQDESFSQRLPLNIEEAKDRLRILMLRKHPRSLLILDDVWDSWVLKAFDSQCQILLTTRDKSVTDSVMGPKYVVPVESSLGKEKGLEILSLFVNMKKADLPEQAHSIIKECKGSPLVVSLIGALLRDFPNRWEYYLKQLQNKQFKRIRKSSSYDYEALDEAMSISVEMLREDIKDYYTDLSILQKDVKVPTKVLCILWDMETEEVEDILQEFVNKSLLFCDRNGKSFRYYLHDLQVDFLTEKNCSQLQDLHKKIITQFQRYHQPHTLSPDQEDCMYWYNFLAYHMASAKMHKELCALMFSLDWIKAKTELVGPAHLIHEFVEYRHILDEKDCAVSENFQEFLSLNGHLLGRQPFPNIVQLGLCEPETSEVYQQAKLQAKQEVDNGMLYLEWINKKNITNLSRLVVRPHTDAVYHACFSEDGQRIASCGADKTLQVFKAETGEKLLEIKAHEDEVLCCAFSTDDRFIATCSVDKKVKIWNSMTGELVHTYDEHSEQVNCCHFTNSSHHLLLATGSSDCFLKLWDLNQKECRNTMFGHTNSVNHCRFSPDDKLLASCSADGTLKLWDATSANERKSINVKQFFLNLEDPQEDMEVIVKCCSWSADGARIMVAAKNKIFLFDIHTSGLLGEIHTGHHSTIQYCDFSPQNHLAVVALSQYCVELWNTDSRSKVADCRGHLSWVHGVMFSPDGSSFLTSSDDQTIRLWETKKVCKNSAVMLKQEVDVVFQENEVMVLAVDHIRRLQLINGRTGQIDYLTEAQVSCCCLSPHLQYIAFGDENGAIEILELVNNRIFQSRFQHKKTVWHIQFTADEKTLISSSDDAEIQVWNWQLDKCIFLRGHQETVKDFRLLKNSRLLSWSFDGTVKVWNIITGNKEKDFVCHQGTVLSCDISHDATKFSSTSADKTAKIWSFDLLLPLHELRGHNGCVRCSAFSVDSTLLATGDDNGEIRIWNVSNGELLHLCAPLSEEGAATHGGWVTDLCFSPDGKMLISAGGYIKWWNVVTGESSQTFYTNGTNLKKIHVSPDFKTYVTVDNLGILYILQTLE

[3] = target: T2, Mannose-6-phosphate isomerase (Homo sapiens, UniProt P34949); test: MPI inhibition at elevated mannose 6-phosphate – biochemical, fluorescence intensity, high mannose 6-phosphate, primary screen (AID 1220)
T2 sequence (P34949 whole entry): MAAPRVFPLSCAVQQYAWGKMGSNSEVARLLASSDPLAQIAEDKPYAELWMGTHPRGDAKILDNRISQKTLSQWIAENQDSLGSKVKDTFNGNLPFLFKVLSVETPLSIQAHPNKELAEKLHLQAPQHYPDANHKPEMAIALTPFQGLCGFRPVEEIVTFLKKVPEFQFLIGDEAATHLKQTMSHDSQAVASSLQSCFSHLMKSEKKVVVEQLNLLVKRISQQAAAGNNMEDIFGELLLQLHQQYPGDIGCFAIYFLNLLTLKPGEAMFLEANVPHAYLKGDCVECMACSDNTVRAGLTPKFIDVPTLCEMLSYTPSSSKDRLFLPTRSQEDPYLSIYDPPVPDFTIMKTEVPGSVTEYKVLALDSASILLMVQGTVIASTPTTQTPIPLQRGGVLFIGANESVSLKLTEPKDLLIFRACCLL

A-375 = test: MITF: Counter assay: A375 proliferation Measured in Cell-Based System Using Plate Reader - 2084-03_Inhibitor_Dose_DryPowder_Activity. [Related pubchem assays (depositor defined):AID488944]; assay type: functional; conditions: Homo sapiens
[4] = target: Kappa-type opioid receptor (Homo sapiens, UniProt P41145); assay type: functional
[5] = loss of viability in HepG2 cells – cell-based, CellTiter-Glo, cherry-picked, cytotoxicity control for Shn3 inhibitor project, dose response (AID 624134); assay type: functional
Paired box protein Pax-8 = Paired box protein Pax-8 (Homo sapiens, UniProt Q06710); test: PAX8 transcriptional activity inhibition in RMG-I – RMG-I cells, luciferase, cherry-pick, dose response (AID 687027); assay type: functional, cell-based;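 also: luciferase reporter driven by Pax8 target thyroperoxidase promoter measured by SteadyGlo luminescence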
[6] = target: Photoreceptor-specific nuclear receptor (Homo sapiens, UniProt Q9Y5X4); assay type: functional;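 also: potency for compounds that break the NR2E3 corepressor complex and count as activators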
[7] = target: Protein-tyrosine kinase 2-beta (Homo sapiens, UniProt Q14289);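 also: potency of inhibitors of PYK2 kinase phosphorylation of poly-GT substrate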
[8] = target: Peroxisome proliferator-activated receptor gamma/Nuclear receptor corepressor 2 (Homo sapiens, UniProt P37231+Q9Y618); assay type: functional
[9] = target: T3, Sphingosine 1-phosphate receptor 4 (Homo sapiens, UniProt O95977); test: Fluorescence dose response cell-based high throughput screening assay for antagonists of the Sphingosine 1-Phosphate Receptor 4 (S1P4). [Related pubchem assays: 1524 (Confirmation in triplicates.), 1510 (Primary screen.)]; assay type: functional
T3 sequence (O95977 whole entry): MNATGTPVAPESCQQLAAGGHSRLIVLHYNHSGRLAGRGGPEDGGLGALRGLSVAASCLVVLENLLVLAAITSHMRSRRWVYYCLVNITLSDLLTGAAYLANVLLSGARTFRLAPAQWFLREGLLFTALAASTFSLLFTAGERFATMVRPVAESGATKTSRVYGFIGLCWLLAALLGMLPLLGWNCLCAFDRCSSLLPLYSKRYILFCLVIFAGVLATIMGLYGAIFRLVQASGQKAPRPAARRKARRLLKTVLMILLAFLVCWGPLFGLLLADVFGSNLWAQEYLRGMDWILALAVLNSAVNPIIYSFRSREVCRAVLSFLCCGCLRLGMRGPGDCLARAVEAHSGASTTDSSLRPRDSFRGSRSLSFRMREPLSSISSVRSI

Perilipin-1/ABHD5 = Perilipin-1/ABHD5 (Homo sapiens, UniProt O60240+Q8WTS1); test: Luminescence-based biochemical high throughput dose response assay for inhibitors of the interaction of the lipase co-activator protein, abhydrolase domain containing 5 (ABHD5) with perilipin-1 (PLIN1) (2K validation set). [Related pubchem assays (depositor defined):AID493027, AID493057]
[10] = target: 1-phosphatidylinositol 4,5-bisphosphate phosphodiesterase gamma-1 (Homo sapiens, UniProt P19174); test: Counterscreen for inhibitors of phospholipase C isozymes (PLC-B3): Fluorescence-based biochemical high throughput dose response assay to identify inhibitors of phospholipase C isozymes (PLC-gamma1).
Sequence of 1-phosphatidylinositol 4,5-bisphosphate phosphodiesterase gamma-1 (P19174 whole entry): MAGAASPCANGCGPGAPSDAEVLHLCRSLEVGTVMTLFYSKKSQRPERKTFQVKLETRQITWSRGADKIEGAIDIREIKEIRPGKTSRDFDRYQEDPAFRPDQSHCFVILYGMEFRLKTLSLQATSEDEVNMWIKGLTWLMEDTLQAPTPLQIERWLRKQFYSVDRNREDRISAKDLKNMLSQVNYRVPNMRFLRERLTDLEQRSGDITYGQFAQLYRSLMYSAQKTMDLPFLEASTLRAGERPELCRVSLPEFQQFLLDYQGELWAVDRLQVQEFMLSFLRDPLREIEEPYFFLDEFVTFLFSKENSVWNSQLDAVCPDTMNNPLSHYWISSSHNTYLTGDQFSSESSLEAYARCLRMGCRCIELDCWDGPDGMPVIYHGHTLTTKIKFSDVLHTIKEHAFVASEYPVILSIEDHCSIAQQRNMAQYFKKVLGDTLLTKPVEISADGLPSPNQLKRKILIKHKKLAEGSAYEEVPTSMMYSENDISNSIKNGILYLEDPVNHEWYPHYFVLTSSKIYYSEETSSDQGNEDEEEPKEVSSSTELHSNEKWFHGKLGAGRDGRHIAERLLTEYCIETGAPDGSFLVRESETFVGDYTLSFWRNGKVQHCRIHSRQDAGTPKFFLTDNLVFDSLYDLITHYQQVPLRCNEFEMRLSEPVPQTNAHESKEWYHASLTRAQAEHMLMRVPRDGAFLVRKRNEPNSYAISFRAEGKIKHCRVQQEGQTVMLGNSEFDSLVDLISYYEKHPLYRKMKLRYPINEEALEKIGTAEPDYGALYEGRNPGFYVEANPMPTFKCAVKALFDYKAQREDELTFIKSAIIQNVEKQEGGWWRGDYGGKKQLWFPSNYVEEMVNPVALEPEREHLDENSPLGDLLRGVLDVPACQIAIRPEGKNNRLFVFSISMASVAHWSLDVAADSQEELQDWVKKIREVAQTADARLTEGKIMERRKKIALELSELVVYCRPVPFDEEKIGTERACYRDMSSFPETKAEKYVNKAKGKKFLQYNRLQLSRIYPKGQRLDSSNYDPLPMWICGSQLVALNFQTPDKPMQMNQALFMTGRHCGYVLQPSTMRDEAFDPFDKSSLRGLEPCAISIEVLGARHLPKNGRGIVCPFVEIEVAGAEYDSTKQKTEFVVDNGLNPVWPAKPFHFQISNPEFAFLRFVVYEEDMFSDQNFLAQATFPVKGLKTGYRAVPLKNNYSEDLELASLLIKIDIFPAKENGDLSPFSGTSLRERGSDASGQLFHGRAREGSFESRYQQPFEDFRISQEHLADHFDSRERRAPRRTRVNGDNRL

Sequence of Photoreceptor-specific nuclear receptor (Q9Y5X4 whole entry): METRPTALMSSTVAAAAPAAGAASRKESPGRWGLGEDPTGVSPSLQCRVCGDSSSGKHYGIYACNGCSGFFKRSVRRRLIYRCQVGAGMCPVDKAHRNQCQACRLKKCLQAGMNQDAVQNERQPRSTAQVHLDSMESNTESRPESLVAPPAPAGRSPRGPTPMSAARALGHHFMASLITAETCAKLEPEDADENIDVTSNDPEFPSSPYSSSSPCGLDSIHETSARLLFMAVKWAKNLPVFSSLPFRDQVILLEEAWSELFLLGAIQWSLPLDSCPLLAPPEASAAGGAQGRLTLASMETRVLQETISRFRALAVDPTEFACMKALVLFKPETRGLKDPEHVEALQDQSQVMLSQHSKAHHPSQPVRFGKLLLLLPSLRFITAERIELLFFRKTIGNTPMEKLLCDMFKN
Sequence of Perilipin-1/ABHD5 (Q8WTS1 whole entry, the tested form may be a part): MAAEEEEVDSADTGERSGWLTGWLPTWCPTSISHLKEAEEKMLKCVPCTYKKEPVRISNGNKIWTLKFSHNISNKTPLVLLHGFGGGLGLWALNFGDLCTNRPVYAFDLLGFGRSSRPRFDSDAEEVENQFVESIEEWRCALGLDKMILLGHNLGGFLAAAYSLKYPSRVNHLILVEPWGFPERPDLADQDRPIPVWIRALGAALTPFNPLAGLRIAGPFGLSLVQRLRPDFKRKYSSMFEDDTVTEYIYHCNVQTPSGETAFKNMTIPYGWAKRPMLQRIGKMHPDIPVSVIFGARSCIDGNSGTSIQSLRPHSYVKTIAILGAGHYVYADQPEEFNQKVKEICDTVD
Sequence of Perilipin-1/ABHD5 (O60240 whole entry, the tested form may be a part): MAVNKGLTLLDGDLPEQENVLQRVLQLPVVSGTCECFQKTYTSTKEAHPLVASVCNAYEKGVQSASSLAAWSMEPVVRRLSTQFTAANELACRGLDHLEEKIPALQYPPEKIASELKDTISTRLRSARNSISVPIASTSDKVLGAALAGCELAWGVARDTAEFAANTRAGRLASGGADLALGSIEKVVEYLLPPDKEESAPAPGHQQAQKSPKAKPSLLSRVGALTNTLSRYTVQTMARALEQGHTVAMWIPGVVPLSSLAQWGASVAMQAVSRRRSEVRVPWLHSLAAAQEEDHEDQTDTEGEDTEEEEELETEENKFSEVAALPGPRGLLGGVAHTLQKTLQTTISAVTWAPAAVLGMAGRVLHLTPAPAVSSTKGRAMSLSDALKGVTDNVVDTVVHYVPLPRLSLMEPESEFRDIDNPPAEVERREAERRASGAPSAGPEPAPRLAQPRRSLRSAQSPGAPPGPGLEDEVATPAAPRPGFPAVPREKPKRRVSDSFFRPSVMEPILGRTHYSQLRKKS
Sequence of Kappa-type opioid receptor (P41145 whole entry): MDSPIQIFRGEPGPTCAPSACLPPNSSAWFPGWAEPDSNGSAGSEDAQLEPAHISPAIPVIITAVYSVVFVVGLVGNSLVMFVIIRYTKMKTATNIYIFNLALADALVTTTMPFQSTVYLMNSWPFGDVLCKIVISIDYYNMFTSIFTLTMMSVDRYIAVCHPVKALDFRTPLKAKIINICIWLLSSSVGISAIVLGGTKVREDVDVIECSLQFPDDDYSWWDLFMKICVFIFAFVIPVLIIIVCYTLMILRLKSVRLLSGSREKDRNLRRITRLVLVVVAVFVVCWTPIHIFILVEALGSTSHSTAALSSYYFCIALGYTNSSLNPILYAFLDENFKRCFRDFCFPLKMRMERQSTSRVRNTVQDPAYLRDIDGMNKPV
Sequence of Paired box protein Pax-8 (Q06710 whole entry): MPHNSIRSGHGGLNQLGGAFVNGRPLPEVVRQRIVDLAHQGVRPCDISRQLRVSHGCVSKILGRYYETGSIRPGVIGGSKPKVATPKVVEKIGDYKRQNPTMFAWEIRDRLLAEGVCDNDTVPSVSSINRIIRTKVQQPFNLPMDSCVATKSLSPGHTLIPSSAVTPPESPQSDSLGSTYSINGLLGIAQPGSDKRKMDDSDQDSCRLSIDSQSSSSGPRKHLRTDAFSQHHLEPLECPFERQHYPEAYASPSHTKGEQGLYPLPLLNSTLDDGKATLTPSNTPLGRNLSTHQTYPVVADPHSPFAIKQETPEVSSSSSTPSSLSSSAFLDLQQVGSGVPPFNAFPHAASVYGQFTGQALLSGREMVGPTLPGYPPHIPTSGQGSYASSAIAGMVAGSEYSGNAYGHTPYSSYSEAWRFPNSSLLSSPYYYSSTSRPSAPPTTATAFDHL
Sequence of Protein-tyrosine kinase 2-beta (Q14289 whole entry): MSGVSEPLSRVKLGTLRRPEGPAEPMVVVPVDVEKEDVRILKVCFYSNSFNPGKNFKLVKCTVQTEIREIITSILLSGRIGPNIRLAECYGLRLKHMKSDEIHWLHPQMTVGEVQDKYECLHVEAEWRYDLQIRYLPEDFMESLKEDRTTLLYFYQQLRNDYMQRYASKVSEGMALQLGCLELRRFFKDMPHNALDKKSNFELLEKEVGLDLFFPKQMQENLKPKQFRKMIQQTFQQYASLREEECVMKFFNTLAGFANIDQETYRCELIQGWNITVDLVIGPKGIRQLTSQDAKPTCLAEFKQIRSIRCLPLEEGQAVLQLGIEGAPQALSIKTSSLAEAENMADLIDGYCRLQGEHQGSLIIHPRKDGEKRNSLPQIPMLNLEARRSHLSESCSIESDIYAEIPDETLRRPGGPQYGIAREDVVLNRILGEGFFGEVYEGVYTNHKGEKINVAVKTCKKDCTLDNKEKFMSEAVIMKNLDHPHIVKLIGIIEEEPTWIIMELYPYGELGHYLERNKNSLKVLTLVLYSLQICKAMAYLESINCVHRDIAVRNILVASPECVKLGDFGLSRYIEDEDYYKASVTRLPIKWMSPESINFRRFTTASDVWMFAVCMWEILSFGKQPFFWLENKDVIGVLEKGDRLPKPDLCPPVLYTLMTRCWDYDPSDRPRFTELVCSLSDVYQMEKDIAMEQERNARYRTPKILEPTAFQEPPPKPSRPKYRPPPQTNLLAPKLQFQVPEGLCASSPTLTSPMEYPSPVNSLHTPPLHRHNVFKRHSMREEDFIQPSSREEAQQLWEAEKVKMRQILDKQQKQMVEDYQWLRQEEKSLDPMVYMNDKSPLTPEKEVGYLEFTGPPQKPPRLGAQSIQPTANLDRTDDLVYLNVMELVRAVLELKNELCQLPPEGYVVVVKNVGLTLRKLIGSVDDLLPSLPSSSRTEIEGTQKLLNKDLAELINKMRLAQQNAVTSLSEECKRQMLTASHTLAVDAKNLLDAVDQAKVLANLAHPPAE

Which EC50 [1] does the source give for O=C1c2cc(F)ccc2-n2c1nc1ccccc1c2=O here?
Its EC50 is 8.84 µM (active).

What about the IC50 [2] of the same molecule?
The IC50 was 67.7 µM (active).

With CCOC(=O)C1=C(c2ccc(OC)cc2)C(=O)c2ccccc2C1=O as the molecule, how does the IC50 [3] read?
The IC50 was > 50 µM (not active).

With O=C1C=C(N(CCO)Cc2ccccc2)c2ccccc2C1=O as the molecule, how does the AC50 (A-375) read?
Its AC50 is 37.8 µM (active).

With CCC(=O)OCCNc1cc(Sc2nccn2C)c2nonc2c1[N+](=O)[O-] as the molecule, how does the IC50 [4] read?
Its IC50 is 22.7 µM.

And the AC50 [5]?
Its AC50 is 16.1 µM (active).

What about the AC50 (Paired box protein Pax-8) of the same molecule?
The AC50 was 7.53 µM (active).

For O=C1C(=O)c2ccccc2-c2ccccc21 [9,10-PHENANTHRENEQUINONE], which IC50 [6] is on record?
Its IC50 is > 39.8 µM (not active).

And the IC50 [7]?
Its IC50 is > 69.5 µM (not active).

What about the IC50 [8] of the same molecule?
The IC50 was 1.84 µM (active).

What about the IC50 [9] of the same molecule?
Its IC50 is 2.03 µM (active).

And the IC50 (Perilipin-1/ABHD5)?
The IC50 was 12.3 µM (inactive).

What about the IC50 [10] of the same molecule?
Its IC50 is 6.37 µM (active).
